In patent publication EP0300423A2, “Cephalosporin compound, method of its production and composition for prevention and treatment of bacterial infectious diseases” (Kyoto Pharmaceutical Industries, Ltd., priority 1987, dated 1989):
Values after ≈ are worked out from the molar mass of the structure shown. Structures can show the parent of a compound that is named as a salt.

Assays:
[1] = tested on: Staphylococcus aureus Smith; assay: Antibacterial activity test, minimum inhibitory concentration; format: cell-based
Escherichia coli NIH = assay: as above; format: cell-based
[2] = Acute toxicity test, oral administration; conditions: mouse, in vivo, male ICR mice, 5 weeks in age, n = 3, orally administered as aqueous solution in distilled water, read-out: LDso value
Method: The acute toxicity of the orally administered cephalosporin derivative of this invention in mice was determined. The test is summarized as follows:
Subject animals: Male mice (ICR, at 5 weeks in age), n = 3
Method of administration: The cephalosporin derivative as obtained in Example 3 below was dissolved in distilled water, and this aqueous solution was orally administered.

Row | Structure (SMILES) | MIC [1] | MIC (Escherichia coli NIH) | LD50 [2]
1 | N[C@@H](C(=O)N[C@@H]1C(=O)N2C(C(=O)O)=C(Cl)CS[C@H]12)c1ccccc1 [Cefaclor, cefaclor, reference compound] | 1.56 µg/mL (≈ 4.24 µM) | 0.78 µg/mL (≈ 2.12 µM) | –
2 | O=C(O)C1=C(CSc2ncns2)CS[C@@H]2[C@H](NC(=O)[C@H](O)c3ccccc3)C(=O)N12 [Example 1, 7-D-(-)Mandelamido-3-(1,2,4-thiadiazol-5-yl)thiomethyl-3-cephem-4-carboxylic acid] | 0.2 µg/mL (≈ 0.431 µM) | 0.39 µg/mL (≈ 0.84 µM) | –
3 | C[C@H](N)C(=O)O[C@@H](C(=O)N[C@@H]1C(=O)N2C(C(=O)OCOC(=O)C(C)(C)C)=C(CSc3ncns3)CS[C@H]12)c1ccccc1 [Example 3, Pivaloyloxymethyl 7-[D-O-(L-alanyl)mandelamido]-3-[(1,2,4-thiadiazol-5-yl)thiomethyl]-3-cephem-4-carboxylate hydrochloride] | – | – | < 5000 mg/kg
